From publication PMC12615518, “Discovery of CRBN-recruiting PROTAC degraders of the METTL3-METTL14 complex” (Medicinal Chemistry Research, 2025)
Read-outs that look alike come from different tables or passages of the source.

Key:
METTL14 = molecular target: T1, METTL14 (Homo sapiens, UniProt Q9HCE5); test: Immunoblotting (Western blot) degradation of METTL14 in MV4-11 cells; type: cell-based; settings: MV4-11 cells, 24 h; for degradation of METTL14 at 1 µM (in words): Fig. 4A right; for % reduction in MV4-11 cells, 0.3 µM, METTL14 / % reduction in MV4-11 cells, 1.0 µM, METTL14: nd = no degradation
T1 construct: Following treatment, total cellular proteins were extracted using RIPA buffer; endogenous in cells; host or cells: MV4-11 (MV4.11) human AML cells, ATCC
T1 sequence (Q9HCE5 whole entry): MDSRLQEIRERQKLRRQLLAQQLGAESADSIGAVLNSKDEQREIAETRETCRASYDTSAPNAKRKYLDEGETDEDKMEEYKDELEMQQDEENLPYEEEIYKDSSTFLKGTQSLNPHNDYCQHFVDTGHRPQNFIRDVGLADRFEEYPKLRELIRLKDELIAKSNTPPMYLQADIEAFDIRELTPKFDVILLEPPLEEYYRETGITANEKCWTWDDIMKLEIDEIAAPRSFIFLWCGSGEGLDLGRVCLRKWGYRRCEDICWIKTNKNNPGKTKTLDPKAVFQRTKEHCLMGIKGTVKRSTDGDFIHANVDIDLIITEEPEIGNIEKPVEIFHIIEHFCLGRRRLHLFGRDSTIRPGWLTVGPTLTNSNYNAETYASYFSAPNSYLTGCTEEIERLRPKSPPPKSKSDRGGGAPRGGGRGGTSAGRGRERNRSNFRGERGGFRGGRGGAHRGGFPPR
T1 sequence (Q86U44 2-580 partner): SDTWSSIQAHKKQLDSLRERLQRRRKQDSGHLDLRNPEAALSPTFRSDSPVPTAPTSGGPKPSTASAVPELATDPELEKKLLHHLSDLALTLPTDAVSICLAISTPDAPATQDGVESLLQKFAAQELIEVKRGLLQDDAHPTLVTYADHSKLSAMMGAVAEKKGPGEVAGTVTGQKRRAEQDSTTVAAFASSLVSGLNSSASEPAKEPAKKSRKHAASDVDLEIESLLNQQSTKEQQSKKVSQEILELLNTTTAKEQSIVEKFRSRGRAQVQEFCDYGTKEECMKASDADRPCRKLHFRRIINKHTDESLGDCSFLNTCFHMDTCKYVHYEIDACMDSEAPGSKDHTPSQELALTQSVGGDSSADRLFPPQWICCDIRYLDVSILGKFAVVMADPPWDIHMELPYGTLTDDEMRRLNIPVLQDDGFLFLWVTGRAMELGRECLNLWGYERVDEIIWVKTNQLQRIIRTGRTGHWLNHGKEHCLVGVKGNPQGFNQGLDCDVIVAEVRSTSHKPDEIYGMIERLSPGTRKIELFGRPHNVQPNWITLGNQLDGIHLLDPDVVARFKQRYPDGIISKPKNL
Procedure: (§1) All cell lines were maintained under standard conditions in a humidified atmosphere at 37 °C with 5% CO₂.
(§2) Western Blot Analysis: Following treatment, total cellular proteins were extracted using RIPA buffer (Auragene, Changsha, China). […] After washing, membranes were incubated with horseradish peroxidase (HRP)-conjugated secondary antibodies (anti-rabbit or anti-mouse IgG; 1:5000) for 2 hours at room temperature. Protein bands were visualized using an enhanced chemiluminescence (ECL) detection kit (Amersham Pharmacia), following the manufacturer's protocol. Band intensities were quantified using ImageJ software and normalized to ACTIN as a loading control. Data was analyzed using GraphPad Prism 9.

METTL3 [1] = tested on: METTL3; parameters: method as in PMID 34431664; settings: read-out: IC50 METTL3 inhibition, enzyme-based assays; cited from earlier work
METTL3 [2] = molecular target: METTL3 (Homo sapiens, UniProt Q86U44); test: Immunoblotting (Western blot) degradation of METTL3 in MV4-11 cells; type: cell-based; parameters: Following treatment, total cellular proteins were extracted using RIPA buffer; endogenous in cells; host or cells: MV4-11 (MV4.11) human AML cells, ATCC; settings: MV4-11 cells, 24 h; for degradation of METTL3 at 1 µM (in words): Fig. 4A right; for % reduction in MV4-11 cells, 0.3 µM, METTL3 / % reduction in MV4-11 cells, 1.0 µM, METTL3: nd = no degradation
Chain of METTL3 (Homo sapiens, UniProt Q86U44) (Q86U44 2-580 limits assumed): as the sequence (Q86U44 2-580 partner) above
Chain of METTL3 (Homo sapiens, UniProt Q86U44) (Q9HCE5 whole entry partner): as the sequence (Q9HCE5 whole entry) above
Procedure: as §1, §2

METTL3/14 [3] = tested on: METTL3/14; parameters: method as in PMID 33902106; settings: read-out: IC50 METTL3/14 catalytic activity inhibition; cited from earlier work
METTL3/14 [4] = molecular target: METTL3/14; parameters: method as in PMID 33902106; settings: read-out: METTL3/14 binding affinity (Kd); cited from earlier work
[5] = tested on: human AML patient-derived xenografts (PDX) models; parameters: method as in PMID 33902106; settings: cited from earlier work
[6] = tested on: primary mouse MLL-AF9/Flt3^Itd/+ model; parameters: method as in PMID 33902106; settings: cited from earlier work
METTL3 [7] = tested on: METTL3; parameters: method as in PMID 32159918; settings: read-out: IC50 METTL3 activity, reader-based HTRF assay; cited from earlier work

For CNc1cc(N2CCC3(CC2)CN(c2cc(F)c(CN4CCC(C)(C)CC4)cc2F)CC(=O)N3)ncn1 [UZH2, reference compound], the “degradation of METTL14 at 1 µM (in words)” value (METTL14) is listed as “not degraded”, the IC50 (METTL3 [1]) is listed as 5 nM and the “degradation of METTL3 at 1 µM (in words)” value (METTL3 [2]) is listed as “not degraded”.
With CN1C(=O)CCC(N2Cc3cc(N4CCN(C(=O)CCCCCCCCCNc5cc(N6CCC7(CC6)CN(c6cc(F)c(CN8CCC(C)(C)CC8)cc6F)CC(=O)N7)ncn5)CC4)ccc3C2=O)C1=O (stereo not drawn) [Compound 4k, 3-(5-(4-(10-((6-(4-(4-((4,4-dimethylpiperidin-1-yl)methyl)-2,5-difluorophenyl)-2-oxo-1,4,9-triazaspiro[5.5]undecan-9-yl)pyrimidin-4-yl)amino)decanoyl)piperazin-1-yl)-1-oxoisoindolin-2-yl)-1-methylpiperidine-2,6-dione] the “degradation of METTL14 at 1 µM (in words)” value (METTL14) was “not degraded”, the “degradation of METTL14 (in words)” value (METTL14; Table 1 screening) was “did not induce degradation” and the “degradation of METTL3 at 1 µM (in words)” value (METTL3 [2]) was “not degraded”. For the same compound, the “degradation of METTL3 (in words)” value (METTL3 [2]; Table 1 screening) was “did not induce degradation”.
For CC1(C)CCN(Cc2cc(F)c(N3CC(=O)NC4(CCN(c5cc(NCCCCCC(=O)N6CCN(c7ccc8c(c7)C(=O)N(C7CCC(=O)NC7=O)C8=O)CC6)ncn5)CC4)C3)cc2F)CC1 (stereo not drawn) [Compound 4b, 5-(4-(6-((6-(4-(4-((4,4-dimethylpiperidin-1-yl)methyl)-2,5-difluorophenyl)-2-oxo-1,4,9-triazaspiro[5.5]undecan-9-yl)pyrimidin-4-yl)amino)hexanoyl)piperazin-1-yl)-2-(2,6-dioxopiperidin-3-yl)isoindoline-1,3-dione], the “% reduction in MV4-11 cells, 0.3 µM, METTL14” value (METTL14; 0.3 µM, immunoblotting) was 36%, the “% reduction in MV4-11 cells, 1.0 µM, METTL14” value (METTL14; 1.0 µM, immunoblotting) was 58% and the “% reduction in MV4-11 cells, 0.3 µM, METTL3” value (METTL3 [2]; 0.3 µM, immunoblotting) was 45%. For the same compound, the “% reduction in MV4-11 cells, 1.0 µM, METTL3” value (METTL3 [2]; 1.0 µM, immunoblotting) was 56%.
With CC1(C)CCN(Cc2cc(F)c(N3CC(=O)NC4(CCN(c5cc(NCCCCCCCC(=O)N6CCN(c7ccc8c(c7)C(=O)N(C7CCC(=O)NC7=O)C8=O)CC6)ncn5)CC4)C3)cc2F)CC1 (stereo not drawn) [Compound 4d, 5-(4-(8-((6-(4-(4-((4,4-dimethylpiperidin-1-yl)methyl)-2,5-difluorophenyl)-2-oxo-1,4,9-triazaspiro[5.5]undecan-9-yl)pyrimidin-4-yl)amino)octanoyl)piperazin-1-yl)-2-(2,6-dioxopiperidin-3-yl)isoindoline-1,3-dione] the “% reduction in MV4-11 cells, 0.3 µM, METTL14” value (METTL14; 0.3 µM, immunoblotting) was 51%, the “% reduction in MV4-11 cells, 1.0 µM, METTL14” value (METTL14; 1.0 µM, immunoblotting) was 67% and the “% reduction in MV4-11 cells, 0.3 µM, METTL3” value (METTL3 [2]; 0.3 µM, immunoblotting) was 52%. For the same compound, the “% reduction in MV4-11 cells, 1.0 µM, METTL3” value (METTL3 [2]; 1.0 µM, immunoblotting) was 68%.
For STM2457, the IC50 (METTL3/14 [3]) is given as 16.9 nM, the Kd (METTL3/14 [4]) is given as 1.4 nM and the anti-leukemic effect [5] is given as “anti-leukemic effect”. The anti-leukemic effect [6] was “anti-leukemic effect”.
With CNc1cc(N2CCC3(CC2)CN(c2cc(F)c(CN4CCC(C)(C(=O)NCCCCNc5cccc6c5C(=O)N(C5CCC(=O)NC5=O)C6=O)CC4)cc2F)CC(=O)N3)ncn1 (stereo not drawn) [Compound 5a, 1-(2,5-difluoro-4-(9-(6-(methylamino)pyrimidin-4-yl)-2-oxo-1,4,9-triazaspiro[5.5]undecan-4-yl)benzyl)-N-(4-((2-(2,6-dioxopiperidin-3-yl)-1,3-dioxoisoindolin-4-yl)amino)butyl)-4-methylpiperidine-4-carboxamide] the “% degradation in MV4-11 cells, 0.3 µM, METTL14” value (METTL14; 0.3 µM, immunoblotting) was 8%, the “% degradation in MV4-11 cells, 1.0 µM, METTL14” value (METTL14; 1.0 µM, immunoblotting) was 21% and the “% degradation in MV4-11 cells, 0.3 µM, METTL3” value (METTL3 [2]; 0.3 µM, immunoblotting) was 33%. For the same compound, the “% degradation in MV4-11 cells, 1.0 µM, METTL3” value (METTL3 [2]; 1.0 µM, immunoblotting) was 52%.
In the case of Nc1ncnc2c1ncn2[C@@H]1O[C@H](C(=O)NCCCCN2CCCC2)[C@@H](O)[C@H]1O [Compound 1], the IC50 (METTL3 [7]) is listed as 8700 nM.
